3 molecules from patent US20190274300A1, “PRESERVATIVE SOLUTION FOR LIVE CELLS OR COMPOSITION CONTAINING LIVE CELLS” (TERUMO KABUSHIKI KAISHA, priority 2016, published 2019) can be followed below.

For the assay, the system named is sheet-shaped human skeletal myoblast cell culture. Description: Cell survival rate confirmation test: sheet-shaped cell culture kept refrigerated in preservative solution, PI staining, flow cytometry. It counts as cell-based. Particulars: 2° C. to 8° C. On the procedure: The sheet-shaped cell cultures were prepared using skeletal myoblast cells (with fibroblast cells contained therein) prepared from a human skeletal muscle by a usual or known method. A cell mixture of human skeletal myoblast cells and human fibroblast cells suspended in a 20% human serum-containing DMEM/F12 medium (Thermo Fisher Scientific Inc.) was seeded at 3.7×10^6 cells/well on a temperature-responsive culture dish (UpCell® 12 well Multi-well, CellSeed Inc.), and was then subjected to the sheet-formation cultivation at 37° C. under 5% CO2 for 12 to 26 hours. After the sheet-formation cultivation, the medium was removed, 700 μL of HBSS (+) (Thermo Fisher Scientific Inc.) which was chilled to 4° C. was added, and then the resultant was left to stand for 10 minutes. Then, gentle pipetting was conducted such as to detach the sheet-shaped cell culture completely.
After the sheet-shaped cell culture was completely detached, HBSS (+) was removed, and a fresh supply of room-temperature HBSS (+) was added to conduct rinsing. Such a washing step was repeated four times.
The sheet-shaped cell culture left to stand under the refrigerated conditions in (1) above was put to measurement of cell survival rate. After the sheet-shaped cell culture left to stand in the preservative solution for a predetermined period was dissociated with a trypsin-like protease, the cells were dispensed into a FACS tube to be 3.5×10^5 cells, followed by centrifugation, and the supernatant was discarded. To the resultant was added 3 ml of 0.5% BAS-containing PBS solution, and, after rinsing the cells by vortex, centrifugation was conducted, the supernatant was removed, and 500 μL of a propidium iodide (PI, Becton Dickinson) prepared to a final concentration of 0.6 μg/mL by use of a 0.5% BSA-containing PBS solution was added and mixed. Immediately after the mixing, the mixture was put to reaction at room temperature under a light shielding condition for approximately five minutes. After the reaction, a 0.5% BSA-containing PBS solution was added, the cells were rinsed by vortex, followed by centrifugation, then the supernatant was removed, 500 μL of a 0.5% BSA-containing PBS solution was added, and the resultant was put to an analysis. The analysis was conducted using a flow cytometer (Becton Dickinson), and the proportion of PI-unstained cells contained in the whole cells admixed with PI was measured. […]
As a control, a DMEM medium (Thermo Fisher Scientific Inc.) was used.
In general terms: Flow cytometry measures light scatter and fluorescence of single cells or particles in a stream.

As to `CC1=NN(c2ccccc2)C(=O)C1` [edaravone, 3-methyl-1-phenyl-2-pyrazolin-5-one], the cell survival rate result runs as follows: (1 μM edaravone in physiological saline solution, five days) “approximately 95%”; (10 μM edaravone in physiological saline solution, five days) “approximately 97%”. In addition, the “cell survival rate as compared to the case of no addition of edaravone” value (1 μM or 10 μM edaravone in physiological saline solution, five days) is recorded as “increased”. Moreover, the “lowering in the number of live cells from three days to seven days of preservation, compared to edaravone-nonadded HBSS (+)” value (100 μM edaravone in HBSS (+)) is “restrained”. Also, the “cell survival rate as compared to HBSS (+) not admixed with edaravone” value (100 μM edaravone in HBSS (+), three days to seven days) was “higher cell survival rate”.

As for `O=C1O[C@H]([C@@H](O)CO)C(O)=C1O` [vitamin C, ascorbic acid], the cell survival rate entry is listed as “approximately 63%” (0.2 mM vitamin C in physiological saline solution, three days) and “approximately 85%” (2 mM vitamin C in physiological saline solution, three days).

tocopherol [vitamin E]: the cell survival rate result was “approximately 65%” (10 μM vitamin E in physiological saline solution, three days) and “approximately 65%” (100 μM vitamin E in physiological saline solution, three days).
